Common to all, as to experiment: NCI anticancer screen, dose series, 48 h
Assay [1] concerns MALME-3M melanoma.
In assay [2] the test system is HT29 colon.
In assay [3] the test system is HCT-116 colon.
For assay [4], the system named is CCRF-CEM leukemia.
For assay [5], the system named is M14 melanoma.
Assay [6] has as its system HS 578T breast.
The subject of assay [7] is PC-3 prostate.
Assay [8] relates to U251 CNS.
Assay [9] has as its system UACC-257 melanoma.
For assay [10], the system named is MDA-N.
For assay [11], the system named is IGROV1 ovarian.
For assay [12], the system named is KM12 colon.
Assay [13] deals with NCI-H226 lung.

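Each compound was tested at five concentrations against cells in 96-well plates for 48 hours. At the GI50, growth is halved. TGI: total growth inhibition.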 Bounds are passed on as bounds.

Take `CC(Br)CN(CC(C)Br)c1ccc2c(c1)Cc1ccccc1-2` (stereo not drawn): the TGI was 24.9 µM in assay [1]; 25.9 µM in [2]; 23.8 µM in [3]; above 100 µM in assay [4]; 24.3 µM in assay [5]; 41.7 µM in assay [6]. Also, the TGI in assay [7] came out at 22.7 µM; in [8] it was 22.7 µM; in assay [9] it was 28.1 µM; in [10], 30.7 µM; in assay [11] it was 20.7 µM; in assay [12] it was 31.4 µM.
With `O=c1ccn([C@@H]2C=C(CO)[C@@H](O)[C@H]2O)c(=O)[nH]1`, the TGI in [1], in assay [2], in assay [3], in assay [4], in assay [8] and in assay [13] was above 625 µM in each case. Further, the TGI in assay [11] and in [12] was above 625 µM in each case.
Consider `CCOP(=O)(CC1OC(CO)C(O)C1O)OCC` (stereo not drawn), for which the TGI in [1] is above 100 µM; in [2] it was above 61.8 µM; in [3], above 100 µM; in assay [4] it was above 100 µM; in assay [5], above 100 µM; in [6], above 100 µM. Further, the TGI in assay [7], in assay [8], in assay [9], in [10], in [11] and in assay [12] was above 100 µM each time.
Consider `Fc1ccc(OCc2ccc3nc(-c4ccccc4)c(Cl)nc3c2)cc1`, for which the TGI in assay [1] is 35.9 µM; in assay [2] it was above 100 µM; in assay [3], above 100 µM; in assay [4] it was 89.8 µM; in assay [5], above 100 µM; in [6] it was 67.7 µM. Further, the TGI in assay [7] was above 100 µM; in assay [8], 39 µM; in assay [9], above 100 µM; in assay [10] it was above 100 µM; in [11] it was 74.3 µM; in assay [12] it was above 100 µM.
Consider `O=C(O)Cn1c[n+](NC(=O)Cc2ccccc2)cn1`, for which the TGI in [1], in assay [2], in assay [3], in assay [4], in assay [5] and in assay [6] was above 10 µM throughout. In addition, the TGI in assay [8], in assay [9], in assay [10], in assay [11] and in assay [12] was above 10 µM throughout.
Regarding `COc1ccc(CCn2ccc(=O)c(O)c2C)cc1OC`, the TGI in [1] is 91 µM; in [2], 77.4 µM; in assay [3] it was above 100 µM; in assay [5], 36.7 µM; in [6], 0.0907 µM; in [7], above 100 µM. Further, the TGI in assay [8] is above 100 µM; in [9], 31 µM; in assay [10], above 100 µM; in [12], above 100 µM.
As to `Clc1sc(Cl)c2c1[C@H](Br)C[C@@H]2Cl`, the TGI in assay [1] was 49.4 µM; in assay [2], above 100 µM; in assay [3] it was 65.9 µM; in assay [4], 52.9 µM; in [5] it was 54.5 µM; in assay [6], 49.8 µM. The TGI is above 100 µM in assay [7]; 83.8 µM in assay [8]; 78.2 µM in assay [9]; above 100 µM in assay [10]; 44.6 µM in assay [11]; above 100 µM in assay [12].
In the case of `CCOC(=O)c1c(-c2ccc(OC)cc2)c(C#N)c(=S)n(C2OC(CO)C(O)C(O)C2O)c1C` (stereo not drawn), the TGI in [1], in [2], in assay [3], in assay [4], in assay [5] and in assay [7] was above 100 µM throughout. Moreover, the TGI in [8], in assay [9], in assay [10], in [13], in [11] and in [12] was above 100 µM each time.
For the compound `Nn1nnc2ccccc21`, the TGI in assay [1], in [2], in assay [3], in assay [4], in [5] and in assay [7] was above 100 µM each time. Further, the TGI in assay [8], in [9], in assay [13] and in assay [11] was above 100 µM each time.
`O=C1c2cc3c(cc2-c2c1c1cc(F)c(F)cc1c(=O)n2C[C@H](O)CO)OCO3`: the GI50 in assay [1] was 0.196 µM; in assay [4] it was 0.0349 µM; in assay [6] it was 0.939 µM; in assay [7] it was 0.127 µM; in [9] it was 0.143 µM; in [11] it was 0.182 µM. The GI50 in assay [12] is 0.123 µM. For the same compound, the TGI in [1] was 0.916 µM; in assay [4] it was above 100 µM; in assay [6], above 100 µM; in [7], above 100 µM; in [9], 0.593 µM; in [11] it was above 100 µM. The compound further came in with a TGI in assay [12] above 100 µM.
Take `C[C@@H](CCO)OC1OC(COC(=O)C(C)(C)C)C(OC(=O)C(C)(C)C)C(OC(=O)C(C)(C)C)C1OC(=O)C(C)(C)C` (stereo partly drawn): the TGI in assay [2] was 35.7 µM; in [3], above 100 µM; in assay [4] it was above 100 µM; in [5], above 100 µM; in assay [6], above 100 µM; in [7], above 100 µM. Also, the TGI in assay [8], in assay [9], in [13] and in assay [11] was above 100 µM throughout.
Turning to `C=C1C[C@@H]2CC[C@@]34CC5O[C@H]6C(O[C@H]7CC[C@H](CC(=O)O[C@@H]8[C@@H](C)[C@@H]9O[C@@H]%10C[C@]%11(C[C@@H]%12O[C@]%13(C[C@H](C)[C@@H]%14O[C@@H]%15CC(C(COC(C)=O)OC(C)=O)O[C@@H]%15C[C@@H]%14O%13)C[C@H](C)[C@@H]%12O%11)O[C@@H]%10C[C@@H]9O[C@H]8CC8O[C@@H](CC[C@@H]1O2)C[C@@H](C)C8(O)CO)O[C@@H]7[C@@H]6O3)[C@H]5O4` (stereo partly drawn), the TGI in [3] was above 1 µM; in [4] it was above 1 µM; in assay [5], above 1 µM; in assay [6], 0.801 µM; in assay [7], above 1 µM; in assay [8], above 1 µM. Besides, the TGI in assay [9] was above 0.53 µM; in assay [13], above 1 µM; in assay [11], above 1 µM; in assay [12] it was above 0.792 µM.

The values above are taken from PubChem BioAssay (NCI).
